PMC11785640, “Structure-based inhibition of acetylcholinesterase and butyrylcholinesterase with 2-Aryl-6-carboxamide benzoxazole derivatives: synthesis, enzymatic assay, and in silico studies” (Molecular Diversity, 2024)

Assays:
AChE [1] = settings: cited from earlier work
BChE = BChE (Equus caballus, UniProt P81908); assay: biochemical; assay type: biochemical; settings: for Ki: from Lineweaver-Burk graphs, mean ± SD, triplicate
Experimental: (§1) These analogs were dissolved in DMSO at an initial concentration of 1 mg/mL. Around 1% of DMSO was present in the final reaction mixture. Acetylthiocholine iodide (AChI)/butyrylcholine iodide (BChI) were used as substrates for enzymatic reactions. […] The mixture was incubated at 20 °C for 20 min. Then, 50 µL of 5,5’-dithio-bis 2-nitro-benzoic acid (DTNB, 0.5 mM) and AChI/BChI were added and enzymatic reactions were initiated.
(§2) Lineweaver-Burk graphs were used for the calculation of Ki and the other parameters as described in prior studies. The Ki values were taken out from this graph. All analyses were conducted independently in triplicate, and result data are expressed as mean values ± SD [59].

AChE [2] = target: AChE (Electrophorus electricus, UniProt O42275); assay: biochemical; assay type: biochemical; settings: for Ki: from Lineweaver-Burk graphs, mean ± SD, triplicate; for Selectivity index (AChE/BChE): ratio AChE/BChE
Chain of AChE (Electrophorus electricus, UniProt O42275) (O42275 24-633): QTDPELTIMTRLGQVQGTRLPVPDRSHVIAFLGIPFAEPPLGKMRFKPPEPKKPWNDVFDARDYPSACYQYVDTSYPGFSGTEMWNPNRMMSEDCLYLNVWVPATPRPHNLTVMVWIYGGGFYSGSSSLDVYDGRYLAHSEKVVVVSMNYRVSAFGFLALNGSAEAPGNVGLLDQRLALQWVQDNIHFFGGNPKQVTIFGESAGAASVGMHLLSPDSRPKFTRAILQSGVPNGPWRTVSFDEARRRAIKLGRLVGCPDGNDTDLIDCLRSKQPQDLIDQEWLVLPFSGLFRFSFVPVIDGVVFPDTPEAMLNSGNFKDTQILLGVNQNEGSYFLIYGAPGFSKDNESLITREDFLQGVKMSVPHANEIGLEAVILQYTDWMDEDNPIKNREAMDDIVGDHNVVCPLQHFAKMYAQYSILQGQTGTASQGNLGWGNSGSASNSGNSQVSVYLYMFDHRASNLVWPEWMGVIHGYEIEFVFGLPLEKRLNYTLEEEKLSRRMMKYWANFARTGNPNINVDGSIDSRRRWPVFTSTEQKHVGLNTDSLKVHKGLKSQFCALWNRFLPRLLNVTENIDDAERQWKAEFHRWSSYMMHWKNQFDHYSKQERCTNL
Experimental: as §1, §2

Chain of BChE (P81908 whole entry): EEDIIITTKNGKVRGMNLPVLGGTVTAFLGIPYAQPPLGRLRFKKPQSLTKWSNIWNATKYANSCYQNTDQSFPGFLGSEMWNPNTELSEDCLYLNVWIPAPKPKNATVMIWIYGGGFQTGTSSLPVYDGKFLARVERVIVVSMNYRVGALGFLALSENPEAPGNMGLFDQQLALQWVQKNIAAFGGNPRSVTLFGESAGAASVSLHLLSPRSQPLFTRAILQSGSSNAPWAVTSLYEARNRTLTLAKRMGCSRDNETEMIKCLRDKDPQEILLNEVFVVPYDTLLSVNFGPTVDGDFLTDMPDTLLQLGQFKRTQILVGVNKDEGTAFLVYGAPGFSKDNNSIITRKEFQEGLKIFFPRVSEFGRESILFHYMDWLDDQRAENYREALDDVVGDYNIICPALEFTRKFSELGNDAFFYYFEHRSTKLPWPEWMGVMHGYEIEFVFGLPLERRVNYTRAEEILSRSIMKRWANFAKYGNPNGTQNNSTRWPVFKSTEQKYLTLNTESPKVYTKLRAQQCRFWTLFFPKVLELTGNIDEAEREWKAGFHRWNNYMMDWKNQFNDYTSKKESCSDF

| SMILES | concentration at which it inhibits AChE (AChE [1]) | IC50 (AChE [1]) | IC50 (BChE) | Ki (BChE) | IC50 (AChE [2]) | Ki (AChE [2]) | Selectivity index (AChE/BChE) (AChE [2]) |
| --- | --- | --- | --- | --- | --- | --- | --- |
| CN(C)C(=O)Oc1ccccc1-c1nc2ccccc2o1 [Compound 1] | 58.2 nM | – | – | – | – | – | – |
| CCN1CCN(CC(=O)Nc2ccc3nc(-c4ccc(C(C)(C)C)cc4)oc3c2)CC1 [Compound 3] | – | 3.67 nM | – | – | – | – | – |
| Cc1ccc(CC(=O)Nc2ccc3nc(-c4ccccc4)oc3c2)cc1 [Compound 4] | – | 38.4 nM | – | – | – | – | – |
| S=c1oc2ccccc2n1CN1CCOCC1 [Compound 5, 3-morpholino methyl-2-thione benzoxazole] | – | 44 nM | – | – | – | – | – |
| CCN(CC)Cn1c(=S)oc2ccccc21 [Compound 6, 3-(diethylamino) methyl-2-thione benzoxazole] | – | 38 nM | – | – | – | – | – |
| O=C(c1ccc2nc(-c3ccco3)oc2c1)N1CCCC1 [Compound 40] | – | – | 101 nM | 95.6 ± 20.2 nM | 52.1 nM | 34.9 ± 7.28 nM | 0.36 |
| O=C(c1ccc2nc(-c3ccco3)oc2c1)N1CCCCC1 [Compound 41] | – | – | 80.1 nM | 75.5 ± 18.4 nM | 25.3 nM | 30.7 ± 6.03 nM | 0.41 |
| O=C(c1ccc2nc(-c3ccco3)oc2c1)N1CCOCC1 [Compound 42] | – | – | 58.7 nM | 48.6 ± 4.55 nM | 21 nM | 14.6 ± 3.01 nM | 0.30 |
| CN(C)C(=O)c1ccc2nc(-c3cccs3)oc2c1 [Compound 43, N,Ndimethyl-2-(thiophen-2-yl)benzo[d]oxazole-6-carboxamide] | – | – | 130 nM | 120 ± 25.7 nM | 29.2 nM | 19.9 ± 0.73 nM | 0.17 |
| CCN(CC)C(=O)c1ccc2nc(-c3cccs3)oc2c1 [Compound 44, N,N-2-(thiophen-2-yl)benzo[d]oxazole-6-carboxamide] | – | – | 75.4 nM | 61 ± 11.1 nM | 27.6 nM | 15.7 ± 0.85 nM | 0.27 |
| CCCN(CCC)C(=O)c1ccc2nc(-c3cccs3)oc2c1 [Compound 45, N,Ndipropyl-2-(thiophen-2-yl)benzo[d]oxazole-6-carboxamide] | – | – | 85.2 nM | 72.5 ± 12.6 nM | 30.1 nM | 21.8 ± 1.45 nM | 0.30 |
| O=C(c1ccc2nc(-c3cccs3)oc2c1)N1CCCC1 [Compound 46, Pyrrolidin-1-yl(2-(thiophen-2-yl)benzo[d]oxazol-6-yl)methanone] | – | – | 84.3 nM | 87.5 ± 13.6 nM | 31.5 nM | 29.2 ± 0.64 nM | 0.33 |
| O=C(c1ccc2nc(-c3cccs3)oc2c1)N1CCCCC1 [Compound 47, Piperidin-1-yl(2-(thiophen-2-yl)benzo[d]oxazol-6-yl)methanone] | – | – | 65.2 nM | 46.6 ± 2.1 nM | 24 nM | 22.3 ± 4.11 nM | 0.48 |
| O=C(c1ccc2nc(-c3cccs3)oc2c1)N1CCOCC1 [Compound 48, Morpholino(2-(thiophen-2-yl)benzo[d]oxazol-6-yl)methanone] | – | – | 33 nM | 22.7 ± 3.07 nM | 17.9 nM | 10.6 ± 0.58 nM | 0.47 |
